According to US20150246898A1, “METALLOENZYME INHIBITOR COMPOUNDS” (DOW AGROSCIENCES LLC, priority 2012, published 2015):
Converted amounts (≈) assume the structure as drawn.

Experiments:
[1] = system: Septoria tritici (ATCC 26517); test: Minimum Inhibitory Concentration (MIC) vs. Septoria tritici, CLSI-based microdilution; assay type: cell-based; details: Zymoseptoria tritici, ATCC26517, 168 h; MIC = 50% reduction in growth of S. tritici, 7 days at 22 °C, RPMI/MOPS, 1% DMSO; read-out: Septoria Rating (MIC)
Protocol: Compounds of the present disclosure were assessed for their ability to inhibit the growth of a common strain of the fungal plant pathogen Septoria tritici (ATCC 26517) using a procedure based on a Clinical and Laboratory Standards Institute (CLSI) microdilution assay protocol for filamentous fungi. Stock solutions of the test compounds and standards were prepared in DMSO at 6400 μg/mL. Each stock solution was used to prepare a 2-fold dilution series ranging from 16 to 0.016 μg/mL (total of 11 compound concentrations) in RPMI-1640 (Roswell Park Memorial Institute) medium containing 3-(N-morpholino)propanesulfonic acid (MOPS) buffer and 2% DMSO. A 100 μL aliquot of the dilutions was added to columns 1 (16 μg/mL compound) through 11 (0.016 μg/mL compound) of a 96-well microtiter plate. This format was replicated in a second row of the microtiter plate. Thus, each microtiter plate could include 11 concentrations of four test or control compounds replicated twice. A 100 μL aliquot of RPMI-1640/MOPS/2% DMSO medium was added to column 12 (no compound control) of the microtiter plate. A fresh culture of S. tritici was used to prepare a solution of approximately 5×10^4 colony-forming units per milliliter (cfu/mL) in RPMI/MOPS medium without DMSO. A 100 μL aliquot of this solution was added to all 96 wells in the microtiter plate. […] In each case of Table 3 the Septoria rating scale is as follows: […]

[2] = system: Puccinia recondita tritici = Puccinia triticina (PUCCRT); test: Fungicidal activity vs. leaf rust on wheat plants (1-day protectant spray); assay type: in vivo; details: wheat (variety Yuma) sprayed at 50 ppm, inoculated next day, disease severity evaluated 7-9 days later, read-out: Puccinia Rating (% Disease Control @ 50 ppm)
Description: Each pot contained 3-8 seedlings. These plants were sprayed until wet with the formulated test compounds. The compounds were formulated at 50 ppm in 10 vol. % acetone plus 90 vol. % Triton X water (deionized water 99.99 wt %+0.01 wt % Triton X100), giving a “formulated test compound.” Formulated test compounds were applied to plants using a turn table sprayer fitted with two opposing air atomization nozzles which delivered approximately 1500 L/ha of spray volume. On the following day, the leaves were inoculated with an aqueous spore suspension of Puccinia recondita tritici and the plants were kept in high humidity overnight to permit spores to germinate and infect the leaf. The plants were then transferred to a greenhouse until disease developed on untreated control plants. Disease severity was evaluated 7-9 days later, depending on the speed of disease development. In each case of Table 3, the Puccinia rating scale is as follows: […]

| Compound | MIC [1] [µg/mL] | pest or weed control at 50 ppm [2] [%] |
| --- | --- | --- |
| OC(c1nc[nH]n1)(c1ccc(F)cc1F)C(F)(F)c1ccc(C#Cc2ccc(F)cc2)cn1 (racemic) [Example 27] | > 4 | < 40 |
| OC(c1cncnc1)(c1ccc(F)cc1F)C(F)(F)c1ccc(OCC(F)(F)F)cn1 (racemic) [Example 34] | 0.5 to 1.5 (≈ 1.12 to 3.35 µM) | 80 to 100 |
| CC(C)C(O)(c1cncnc1)C(F)(F)c1ccc(C#Cc2ccc(C#N)cc2)cn1 (racemic) [Example 35] | 0.5 to 1.5 (≈ 1.24 to 3.71 µM) | < 40 |
| O=C(Nc1ccc(C#Cc2ccc(C(F)(F)C(O)(c3cncnc3)c3ccc(F)cc3F)nc2)cc1)C(F)(F)F (racemic) [Example 38] | 0.5 to 1.5 (≈ 0.892 to 2.68 µM) | < 40 |
| COc1ccc(Oc2ccc(C(F)(F)C(O)(c3cncnc3)c3ccc(F)cc3F)nc2)cc1 (racemic) [Example 42] | 0.5 to 1.5 (≈ 1.06 to 3.18 µM) | 80 to 100 |
| OC(c1cncnc1)(c1ccc(F)cc1F)C(F)(F)c1ccc(Oc2cccc(Cl)c2)cn1 (racemic) [Example 47] | 0.5 to 1.5 (≈ 1.05 to 3.15 µM) | 80 to 100 |
| OC(c1cncnc1)(c1ccc(F)cc1F)C(F)(F)c1ccc(OCc2ccc(Cl)c(F)c2)cn1 (racemic) [Example 51] | 0.5 to 1.5 (≈ 0.985 to 2.95 µM) | 60 to 79 |
| Nc1ccc(C#Cc2ccc(C(F)(F)C(O)(c3ccc(Cl)cc3)c3cncnc3)nc2)cc1 (racemic) [Example 55] | 0.5 to 1.5 (≈ 1.08 to 3.24 µM) | < 40 |
| OC(c1cncnc1)(c1ccc(F)cc1F)C(F)(F)c1ccc(OCc2ccc(F)c(F)c2)cn1 (racemic) [Example 60] | 0.5 to 1.5 (≈ 1.02 to 3.05 µM) | 60 to 79 |
| CC(C)C(O)(c1cncnc1)C(F)(F)c1ccc(C#Cc2ccc(Cl)cc2)cn1 (racemic) [Example 64] | ≤ 0.5 | < 40 |

Second part, led by results:

| MIC [1] [µg/mL] | Compound | pest or weed control at 50 ppm [2] [%] |
| --- | --- | --- |
| ≤ 0.5 | O=[N+]([O-])c1ccc(C#Cc2ccc(C(F)(F)C(O)(c3cncnc3)c3ccc(F)cc3F)nc2)cc1 (racemic) [Example 16, 1-(2,4-Difluorophenyl)-2,2-difluoro-2-(5-((4-nitrophenyl)ethynyl)pyridin-2-yl)-1-(pyrimidin-5-yl)ethanol] | 60 to 79 |
| ≤ 0.5 | N#Cc1cccc(C#Cc2ccc(C(F)(F)C(O)(c3cncnc3)c3ccc(F)cc3F)nc2)c1 (racemic) [Example 18, 3-((6-(2-(2,4-Difluorophenyl)-1,1-difluoro-2-hydroxy-2-(pyrimidin-5-yl)ethyl)pyridin-3-yl)ethynyl)benzonitrile] | 80 to 100 |
| ≤ 0.5 | Nc1ccc(C#Cc2ccc(C(F)(F)C(O)(c3cncnc3)c3ccc(F)cc3F)nc2)cc1 (racemic) [Example 20, 2-(5-((4-Aminophenyl)ethynyl)pyridin-2-yl)-1-(2,4-difluorophenyl)-2,2-difluoro-1-(pyrimidin-5-yl)ethanol] | 60 to 79 |
| ≤ 0.5 | OC(c1cncnc1)(c1ccc(F)cc1F)C(F)(F)c1ccc(C#Cc2ccc(OC(F)F)cc2)cn1 (racemic) [Example 21, 2-(5-((4-(Difluoromethoxy)phenyl)ethynyl)pyridin-2-yl)-1-(2,4-difluorophenyl)-2,2-difluoro-1-(pyrimidin-5-yl)ethanol] | 80 to 100 |
| ≤ 0.5 | N#Cc1ccc(C#Cc2ccc(C(F)(F)C(O)(c3cncnc3)c3ccc(F)cc3F)nc2)s1 (racemic) [Example 37] | 60 to 79 |
| ≤ 0.5 | OC(c1cncnc1)(c1ccc(F)cc1F)C(F)(F)c1ccc(OCc2ccc(Cl)cc2)cn1 (racemic) [Example 41] | 80 to 100 |
| ≤ 0.5 | N#Cc1ccc(C#Cc2ccc(C(F)(F)C(O)(c3ccc(Cl)cc3)c3cncnc3)nc2)cc1 (racemic) [Example 43] | 60 to 79 |
| ≤ 0.5 | CC(C)(C)C(O)(c1cncnc1)C(F)(F)c1ccc(C#Cc2ccc(F)cc2)cn1 (racemic) [Example 48] | < 40 |
| ≤ 0.5 | CC(C)(C)C(O)(c1cncnc1)C(F)(F)c1ccc(C#Cc2ccc(Cl)cc2)cn1 (racemic) [Example 62] | < 40 |
